Test results: patent publication US5441941A, “1,2-dihydroellipticines with activity against CNS specific cancer” (The United States of America as represented by the …, priority 1993, dated 1995)

Experiments:
[1] = test system: HOP-92; test: cells; details: Homo sapiens
[2] = test system: NCI-H522; test: NCI in vitro screen, SRB percent growth, Non-Small Cell Lung Cancer
[3] = test system: SF-268; test: NCI in vitro screen, SRB percent growth, CNS Cancer; details: for TGI: PG=0; for GI50: PG=+50; for CC50: read-out: LC-50, PG=-50
[4] = test system: DMS 273; test: NCI in vitro screen, SRB percent growth, Small Cell Lung Cancer
[5] = test system: HOP-18; test: NCI in vitro screen, SRB percent growth, Non-Small Cell Lung Cancer
[6] = test system: A498; test: NCI in vitro screen, SRB percent growth, Renal Cancer
[7] = test system: SR; test: NCI in vitro screen, SRB percent growth, Leukemia
[8] = test system: NCI-H322M; test: NCI in vitro screen, SRB percent growth, Non-Small Cell Lung Cancer
[9] = test system: OVCAR-4; test: NCI in vitro screen, SRB percent growth, Ovarian Cancer
[10] = test system: RXF-393; test: NCI in vitro screen, SRB percent growth, Renal Cancer
[11] = test system: SN12C; test: as above
[12] = test system: NCI-H226; test: cells; details: Homo sapiens
[13] = HOP-92, read-out: Percent Growth
[14] = Log10 Concentration -4.0, 100 µM
[15] = Log10 Concentration -7.0, 0.1 µM
[16] = NCI-H226, read-out: Percent Growth

Structure (SMILES): COc1ccc2[nH]c3c(C)c4c(c(C)c3c2c1)CN(C)C=C4 [Formula VII]
- GI50 ([1]; HOP-92): 5.97 µM
- CC50 ([1]; HOP-92, read-out: LC-50): 86.8 µM
- activity at 0.01 µM [1, 13]: 121%
- activity at 0.1 µM [1, 13]: 100%
- activity at 1 µM [1, 13]: 95%
- activity at 10 µM [1, 13]: 37%
- activity at 100 µM [1, 13]: -56%
- IC (TGI) ([1]; HOP-92, read-out: TGI): 25.1 µM
- Percent Growth [2, 14]: -46%
- Percent Growth ([2]; Log10 Concentration -5.0): -30%
- Percent Growth ([2]; Log10 Concentration -6.0, 1 µM): 40%
- Percent Growth [2, 15]: 91%
- Percent Growth ([2]; Log10 Concentration -8.0): 97%
- TGI ([2]; PG=0): 3.71 µM
- GI50 ([2]; PG=+50): 0.626 µM
- CC50 ([2]; read-out: LC-50, PG=-50): > 100 µM
- Percent Growth [3, 14]: -55%
- Percent Growth ([3]; Log10 Concentration -5.0): -45%
- Percent Growth ([3]; Log10 Concentration -6.0, 1 µM): 2%
- Percent Growth [3, 15]: 76%
- Percent Growth ([3]; Log10 Concentration -8.0): 91%
- TGI [3]: 1.1 µM
- GI50 [3]: 0.223 µM
- CC50 [3]: 35 µM
- TGI ([4]; PG=0): 13.4 µM
- GI50 ([4]; PG=+50): 0.827 µM
- Percent Growth [5, 14]: -6%
- Percent Growth ([5]; Log10 Concentration -5.0): 71%
- Percent Growth ([5]; Log10 Concentration -6.0, 1 µM): 121%
- Percent Growth [5, 15]: 142%
- Percent Growth ([5]; Log10 Concentration -8.0): 174%
- TGI ([5]; PG=0): 82.8 µM
- GI50 ([5]; PG=+50): 18.8 µM
- CC50 ([5]; read-out: LC-50, PG=-50): > 100 µM
- Percent Growth [6, 14]: -3%
- Percent Growth ([6]; Log10 Concentration -5.0): 54%
- Percent Growth ([6]; Log10 Concentration -6.0, 1 µM): 93%
- Percent Growth [6, 15]: 114%
- Percent Growth ([6]; Log10 Concentration -8.0): 105%
- TGI ([6]; PG=0): 90.2 µM
- GI50 ([6]; PG=+50): 11.6 µM
- CC50 ([6]; read-out: LC-50, PG=-50): > 100 µM

Structure (SMILES): Cc1ccc2[nH]c3c(C)c4c(c(C)c3c2c1)CN(C)C=C4 [Formula XI]
- Percent Growth [7, 14]: -42%
- Percent Growth ([7]; Log10 Concentration -5.0): 6%
- Percent Growth ([7]; Log10 Concentration -6.0, 1 µM): 47%
- Percent Growth [7, 15]: 86%
- Percent Growth ([7]; Log10 Concentration -8.0): 101%
- TGI ([7]; PG=0): 13.5 µM
- GI50 ([7]; PG=+50): 0.846 µM
- CC50 ([7]; read-out: LC-50, PG=-50): > 100 µM
- Percent Growth [8, 14]: -100%
- Percent Growth ([8]; Log10 Concentration -5.0): 10%
- Percent Growth ([8]; Log10 Concentration -6.0, 1 µM): 99%
- Percent Growth [8, 15]: 139%
- Percent Growth ([8]; Log10 Concentration -8.0): 133%
- TGI ([8]; PG=0): 12.3 µM
- GI50 ([8]; PG=+50): 3.55 µM
- CC50 ([8]; read-out: LC-50, PG=-50): 35.1 µM
- Percent Growth [9, 14]: -85%
- Percent Growth ([9]; Log10 Concentration -5.0): -6%
- Percent Growth ([9]; Log10 Concentration -6.0, 1 µM): 68%
- Percent Growth [9, 15]: 96%
- Percent Growth ([9]; Log10 Concentration -8.0): 113%
- TGI ([9]; PG=0): 8.34 µM
- GI50 ([9]; PG=+50): 1.74 µM
- CC50 ([9]; read-out: LC-50, PG=-50): 36.3 µM
- Percent Growth [10, 14]: -92%
- Percent Growth ([10]; Log10 Concentration -5.0): 9%
- Percent Growth ([10]; Log10 Concentration -6.0, 1 µM): 51%
- Percent Growth [10, 15]: 96%
- Percent Growth ([10]; Log10 Concentration -8.0): 99%
- TGI ([10]; PG=0): 12.3 µM
- GI50 ([10]; PG=+50): 1.04 µM
- CC50 ([10]; read-out: LC-50, PG=-50): 38.5 µM
- Percent Growth [3, 14]: -83%
- Percent Growth ([3]; Log10 Concentration -5.0): -94%
- Percent Growth ([3]; Log10 Concentration -6.0, 1 µM): -39%
- Percent Growth [3, 15]: 96%
- Percent Growth ([3]; Log10 Concentration -8.0): 101%
- TGI [3]: 0.514 µM
- GI50 [3]: 0.218 µM
- CC50 [3]: 1.6 µM
- Percent Growth [11, 14]: -92%
- Percent Growth ([11]; Log10 Concentration -5.0): -69%
- Percent Growth ([11]; Log10 Concentration -6.0, 1 µM): -36%
- Percent Growth [11, 15]: 66%
- Percent Growth ([11]; Log10 Concentration -8.0): 92%
- TGI ([11]; PG=0): 0.442 µM
- GI50 ([11]; PG=+50): 0.143 µM
- CC50 ([11]; read-out: LC-50, PG=-50): 2.65 µM
- GI50 ([12]; NCI-H226): 0.329 µM
- CC50 ([12]; NCI-H226, read-out: LC-50): 17.4 µM
- activity at 0.01 µM [12, 16]: 99%
- activity at 0.1 µM [12, 16]: 83%
- activity at 1 µM [12, 16]: 19%
- activity at 10 µM [12, 16]: -43%
- activity at 100 µM [12, 16]: -71%
- IC (TGI) ([12]; NCI-H226, read-out: TGI): 2.02 µM
